According to the NIST ThermoML archive (doi:10.1021/je900428g):
“And” between values parts separate entries of the source, which are not always exact repeats. Equal values may be shown once.

Settings: Fluid (supercritical or subcritical phases), Spherical resonator

[Ar] [argon]
Settings | speed of sound
250 K, 53.7 kPa | 294.48 m/s
250 K, 198 kPa | 294.47 m/s
250 K, 329.4 kPa | 294.47 m/s
250 K, 2365.8 kPa | 294.8 m/s
250 K, 4652.9 kPa | 296.36 m/s
250 K, 5823 kPa | 297.76 m/s
250.16 K, 48.7 kPa | 294.57 m/s
250.16 K, 48.8 kPa | 294.58 m/s
250.16 K, 192 kPa | 294.57 m/s
250.16 K, 309.1 kPa | 294.57 m/s
250.16 K, 447.7 kPa | 294.56 m/s and 294.57 m/s
250.16 K, 598.6 kPa | 294.56 m/s and 294.57 m/s
250.16 K, 732.5 kPa | 294.56 m/s and 294.58 m/s
250.16 K, 875.6 kPa | 294.58 m/s
250.16 K, 1401.1 kPa | 294.62 m/s and 294.65 m/s
260 K, 198.6 kPa | 300.35 m/s
260 K, 327.3 kPa | 300.37 m/s
260 K, 3507.5 kPa | 301.95 m/s
260 K, 4624 kPa | 303.04 m/s
260 K, 6602.3 kPa | 305.84 m/s
270 K, 53.2 kPa | 306.06 m/s
270 K, 200 kPa | 306.11 m/s
270 K, 325.8 kPa | 306.15 m/s
270 K, 467.2 kPa | 306.2 m/s
270 K, 3521.8 kPa | 308.29 m/s
270 K, 4675.9 kPa | 309.59 m/s
270 K, 5775.2 kPa | 311.12 m/s
275.1 K, 47.6 kPa | 308.94 m/s
275.1 K, 206.8 kPa | 309.01 m/s
275.1 K, 206.9 kPa | 309.01 m/s
275.1 K, 384.3 kPa | 309.09 m/s and 309.1 m/s
275.1 K, 547.4 kPa | 309.17 m/s and 309.18 m/s
275.1 K, 591.7 kPa | 309.2 m/s
275.1 K, 706.2 kPa | 309.25 m/s and 309.26 m/s
275.1 K, 733.8 kPa | 309.27 m/s and 309.28 m/s
275.1 K, 860.2 kPa | 309.34 m/s and 309.33 m/s and 309.35 m/s
275.1 K, 860.3 kPa | 309.35 m/s
275.1 K, 1389.2 kPa | 309.65 m/s
275.1 K, 1389.3 kPa | 309.67 m/s
280 K, 200.1 kPa | 311.76 m/s
280 K, 328.3 kPa | 311.83 m/s
280 K, 2342.8 kPa | 313.26 m/s
280 K, 4647.9 kPa | 315.83 m/s
280 K, 5767 kPa | 317.48 m/s
280 K, 6610.3 kPa | 318.94 m/s
280.12 K, 99.1 kPa | 311.77 m/s
280.12 K, 305.2 kPa | 311.87 m/s
280.12 K, 307.7 kPa | 311.89 m/s
280.12 K, 529.4 kPa | 312 m/s
280.12 K, 531.1 kPa | 312.01 m/s
280.12 K, 745.8 kPa | 312.13 m/s
280.12 K, 748 kPa | 312.14 m/s
280.12 K, 962.4 kPa | 312.27 m/s
280.12 K, 964.6 kPa | 312.28 m/s
280.12 K, 1184.9 kPa | 312.42 m/s
280.12 K, 1396.4 kPa | 312.58 m/s
280.12 K, 1396.8 kPa | 312.57 m/s
280.12 K, 1601.7 kPa | 312.72 m/s
280.12 K, 1834.4 kPa | 312.91 m/s
290 K, 53.6 kPa | 317.2 m/s
290 K, 196.4 kPa | 317.3 m/s
290 K, 1191.6 kPa | 318.04 m/s
290 K, 2325 kPa | 319.08 m/s
290 K, 3477.8 kPa | 320.36 m/s
300 K, 30.5 kPa | 322.62 m/s
